Test results taken from patent US4001230A, “3-(5-Nitroimidazol-2-yl)pyrazolo[3,4-d]pyrimidine compounds” (Eli Lilly and Company, priority 1975, dated 1977).
In brackets after ≈: the same amount, converted by molar mass. Read-outs that look alike come from different tables or passages of the source.

Assays:
[1] = system: P. multocida; test: In vivo activity in drinking water for treatment of Pasteurella multocida infection in mice (LD50, protective index); design: species or system white female mice; settings: observed 7 days
Procedure: A comparison of the in vivo activity of a novel compound of this invention and nitrofurazolidone (Furacin) when administered in drinking water for the treatment of Pasteurella multocida infection in mice was conducted. The novel compound of this invention used in this study was 4,5-di-hydro-4-imino-1-methyl-3-(1-methyl-5-nitroimidazol-2-yl)-5-(4-pyridylmethyl)-1H-pyrazolo[3,4-d]pyrimidine diphosphate, identified by its operating example No. 8k. The test was conducted in the following manner.
Twenty white female mice, each weighing about 15-20 g., were divided into four groups of five mice each, and the groups were each placed on water medication containing:
a. Compound 8k, 0.5 g./gal.
b. Compound 8k, 2.0 g./gal.
c. Nitrofurazolidone, 0.5 g./gal.
d. Nitrofurazolidone, 2.0 g./gal.
The groups receiving each treatment were challenged with 0.1 ml. each of a 10^-^4, 10^-^5, 10^-^6, or 10^-^7 dilution of a 16 to 20-hour broth culture of P. multocida. Untreated groups of mice were challenged with log10 dilutions of the same broth culture using 0.1 ml. of 10^-^4 through 10^-^9 dilutions. […] By subtracting the LD50 of each of the treated groups from that of the control group of mice, there was obtained a figure called the protective index.
In the table, column 1 sets forth the treatment; column 2, the LD50; and column 3 the log10 protection obtained.

[2] = system: Salmonella typhimurium; test: In vivo activity against Salmonella typhimurium in chicks, subcutaneous
[3] = system: Pasteurella multocida; test: Efficacy against Pasteurella multocida infections in mice when administered by injection; assay type: in vivo, Female Swiss mice; settings: for responders at 2.5 mg/kg / responders at 5 mg/kg / responders at 1.25 mg/kg: Pasteurella multocida, ip, read-out: Survival ratio (mice surviving / mice tested) (converted); for responders at 2.5 mg/kg: 2.5 mg./kg. intraperitoneal; for responders at 1.25 mg/kg: 1.25 mg./kg. intraperitoneal
Procedure: The efficacy of the novel compounds against Pasteurella multocida infections in mice when administered by injection was studied.
Female Swiss mice weighing from 15 to about 20 g. were used. The test compound, 5.0 mg., was weighed out and dissolved in 0.5 ml. of dimethyl sulfoxide, and this solution was added to 9.5 ml. of sodium carboxymethylcellulose suspension. Groups of five mice each were injected intraperitoneally with 0.1 ml. each of the above-prepared test composition. This preparation gave a test rate of 2.5 mg. per kilo of body weight of mouse. The compounds were tested at 1.25, 2.5, or 5.0 per kilogram of body weight of mouse, and the test preparations for the rates of 1.25 and 5.0 mg./kg. were prepared in a similar manner. Immediately after receiving the test compound, the mice were challenged using log10 dilutions of 10^-^4, 10^-^5 and 10^-^6,of a 16 to 20-hour tryptose broth culture of Pasteurella multocida at 0.1 ml. per mouse subcutaneously. Similar groups of nontreated control mice were also challenged, the challenge being administered subcutaneously. The groups of mice were observed daily for mortality and the total mortality in treated groups compared with that which occurred in the nonmedicated control groups. Each test compound is identified by the number of the example describing its preparation.
In the chart, column 1 lists the test compound; column 2, the dosage of test compound in mg./kg. of mouse body weight; column 3, the dilution of the challenge organism; and column 4, the ratio of the number of mice surviving the test at each dosage and challenge dilution to the number of mice tested at each dosage and challenge dilution, called the survival ratio.

[4] = system: Aeromonas liquefaciens; test: In vitro activity against fish bacterial pathogen, standard tube dilution test (MIC); assay type: cell-based; settings: Aeromonas hydrophila; Aeromonas liquefaciens; tryptose broth, overnight, about 37° C.; read-out: minimum inhibitory concentration (MIC)
Procedure: (§1) The in vitro activity of certain of the novel compounds of this invention against two fish bacterial pathogens was determined using tryptose broth and the standard tube dilution test system. Doubling dilutions ranging from 100.0 to 0.78 mcg./ml. of each of the test compounds were prepared in 5 ml. amounts of tryptose broth. Each tube in the series was then inoculated with one drop from a 24-hour broth culture of either Pseudomonas sp. or a strain of Aeromonas liquefaciens. The tubes were incubated overnight at about 37° C., and the minimum inhibitory concentration (MIC) determined and recorded.
(§2) Column 1 lists the test compounds identified by their operating example number; column 2 lists the MIC for Pseudomonas sp.; and column 3 lists the MIC for Aeromonas liquefaciens.

[5] = system: Pseudomonas sp.; test: as above; assay type: cell-based; settings: tryptose broth, overnight, about 37° C., read-out: minimum inhibitory concentration (MIC)
Procedure: as §1, §2

[6] = system: Trichomonas vaginalis; test: In vitro activity against Trichomonas vaginalis; assay type: cell-based
[7] = system: Trichomonas vaginalis; test: In vivo activity against Trichomonas vaginalis
[8] = system: Treponema hyodysenteriae; test: In vitro activity against Treponema hyodysenteriae on blood agar plates (MIC); assay type: cell-based
Procedure: A number of representative compounds, namely, 5b, 8, and 15b, were tested for their in vitro activity against Treponema hyodysenteriae. The treponema were propagated on blood agar plates. Each plate which was prepared contained 20 ml. of trypticase soy agar (Baltimore Biological Laboratory [BBL]) with 5.0 g./l. of yeast extract (Difco) and 5 percent sterile defibrinated horse blood. The plates were sterile plastic 15 × 100 mm. petri plates. Incubation was carried out at 37° C. for 4 days under anaerobic conditions using the BBL Gas Pak system.
The concentrations of test compounds in this initial test were prepared in dilutions ranging from 2000 mcg./ml. to 7.8 mcg./ml. The test procedure was carried out in the following manner. Five ml. of a twenty-fold concentration in tryptose broth (Difco) of each filter-sterilized test compound dilution was mixed in a series of flasks containing 90 ml. of melted trypticase soy agar with yeast extract. Five ml. of horse blood was then added per flask. The contents of these flasks were then used to prepare a series of blood agar plates in doubling decreasing dilutions ranging from 100 mcg./ml. to 0.39 mcg./ml.
The treponema for inoculation of these plates were obtained by adding 3.0 ml. of sterile tryptose broth to the surface of a plate on which the treponema had been propagated. A sterile cotton-tipped swab was used to loosen the treponema from the agar. […] The inoculum was spread so that it covered the surface of each plate, a bent sterile plastic pipette being used for this purpose for each plate. The plates were incubated at about 36° C. for about 4 days and then examined for growth of the treponema. The minimum inhibitory concentration (MIC) of each test compound was the concentration that prevented growth of treponema.

[9] = challenge dilution 10^-^4 subcutaneous
[10] = challenge dilution 10^-^5 subcutaneous
[11] = challenge dilution 10^-^6 subcutaneous
[12] = 5.0 mg./kg. intraperitoneal, challenge dilution 10^-^4 subcutaneous
[13] = 5.0 mg./kg. intraperitoneal, challenge dilution 10^-^5 subcutaneous
[14] = 5.0 mg./kg. intraperitoneal, challenge dilution 10^-^6 subcutaneous

| Compound | Protective Index (log10 protection) ([1]; 0.5 g./gal. in drinking water) | Protective Index (log10 protection) ([1]; 2.0 g./gal. in drinking water) | in vivo activity against Salmonella typhimurium in chicks [2] | responders at 2.5 mg/kg [3, 9] [%] | responders at 2.5 mg/kg [3, 10] [%] | responders at 2.5 mg/kg [3, 11] [%] | responders at 5 mg/kg [3, 12] [%] | responders at 5 mg/kg [3, 13] [%] | responders at 5 mg/kg [3, 14] [%] | MIC [4] [µg/mL] | MIC [5] [µg/mL] | in vitro activity against Trichomonas vaginalis [6] | in vivo activity against Trichomonas vaginalis [7] | Survival ratio (mice surviving / mice tested) [3, 12] | responders at 1.25 mg/kg [3, 9] [%] | responders at 1.25 mg/kg [3, 10] [%] | responders at 1.25 mg/kg [3, 11] [%] | MIC ([8]; Brachyspira hyodysenteriae, 96 h, blood agar plates, about 36° C., about 4 days, read-out: minimum inhibitory concentration (MIC)) [µg/mL] | inhibition of growth of the treponema ([8]; doubling dilutions 100 mcg./ml. to 0.39 mcg./ml.) |
| --- | --- | --- | --- | --- | --- | --- | --- | --- | --- | --- | --- | --- | --- | --- | --- | --- | --- | --- | --- |
| 5-[2-(Diethylamino)ethyl]-4,5-dihydro-4-imino-1-methyl-3-(1-methyl-5-nitroimidazol-2-yl)-1H-pyrazolo[3,4-d]-pyrimidine disulfate [Example 8i] | > 2.5 | > 2.5 |  |  |  |  |  |  |  |  |  |  |  |  |  |  |  |  |  |
| Cc1nc2c(c(-c3ncc([N+](=O)[O-])n3C)nn2C)c(=O)[nH]1 [Example 13, 1,5-Dihydro-1,6-dimethyl-3-(1-methyl-5-nitroimidazol-2-yl)-4H-pyrazolo[3,4-d]pyrimidin-4-one] |  |  | active in vivo against Salmonella typhimurium in chicks | 20 | 20 | 60 | 10 | 50 | 50 |  |  |  |  |  |  |  |  |  |  |
| CCc1nc2c(c(-c3ncc([N+](=O)[O-])n3C)nn2C)c(=O)[nH]1 [Example 2, 6-Ethyl-1,5-dihydro-1-methyl-3-(1-methyl-5-nitroimidazol-2-yl)-4H-pyrazolo[3,4-d]pyrimidin-4-one] |  |  | active in vivo against Salmonella typhimurium in chicks |  |  |  | 20 | 33.3 | 33.3 | 50 (≈ 165 µM) | 50 (≈ 165 µM) |  |  |  |  |  |  |  |  |
| Cn1nc(-c2ncc([N+](=O)[O-])n2C)c2c1NC(CCl)(OC(=O)CCl)NC2=O (centres unmarked) [Example 3, 6-(Chloromethyl)-6,7-dihydro-6-hydroxy-1-methyl-3-(1-methyl-5-nitroimidazol-2-yl)-1H-pyrazolo[3,4-d]pyrimidin-4-(5H)-one, chloroacetate ester] |  |  |  | 30 | 10 | 20 | 5 | 20 | 25 |  |  | active both in vitro and in vivo against Trichomonas vaginalis | active both in vitro and in vivo against Trichomonas vaginalis |  |  |  |  |  |  |
| CN(C)CCn1cnc2c(c(-c3ncc([N+](=O)[O-])n3C)nn2C)c1=N [Example 8, 5-[2-(Dimethylamino)ethyl]4,5-dihydro-4-imino-1-methyl-3-(1-methyl-5-nitroimidazol-2-yl)-1H-pyrazolo[3,4-d]pyrimidine] |  |  | active in vivo against Salmonella typhimurium in chicks | 40 | 60 | 100 |  | 100 | 100 | 12.5 (≈ 36.2 µM) | 1.56 (≈ 4.52 µM) | active both in vitro and in vivo against Trichomonas vaginalis | active both in vitro and in vivo against Trichomonas vaginalis | 10/10 | 20 | 40 | 60 | ≤ 1.56 | inhibited growth of the treponema at each of the levels tested |
| CN(C)CCCn1cnc2c(c(-c3ncc([N+](=O)[O-])n3C)nn2C)c1=N [Example 10, 5-[3-(Dimethylamino)propyl]-4,5-dihydro-4-imino-1-methyl-3-(1-methyl-5-nitroimidazol-2-yl)-1H-pyrazolo[3,4-d]pyrimidine] |  |  |  |  |  |  | 100 | 80 | 100 |  |  | active both in vitro and in vivo against Trichomonas vaginalis | active both in vitro and in vivo against Trichomonas vaginalis |  |  |  |  |  |  |
